# Columns and labels:
# [1] = system: PIK3CA mutation-positive Colo201 cells derived from human colorectal cancer; assay: Anti-tumor test 1 on mice tumor-bearing human colorectal cancer-derived Colo201 cells; format: in vivo; settings: Colo201, Balb/c nude mice, 8 mg/kg oral once a day for 14 days, final measuring day
# Experimental: (§1) 5 to 6 week old male Balb/c nude mice (CHARLES RIVER LABORATORIES JAPAN, INC.) were injected and implanted, under the skin on the back, with 1.5×10^6 PIK3CA mutation-positive and BRAF mutation-positive RKO cells, or 3×10^6 PIK3CA mutation-positive Colo201 cells, both derived from human colorectal cancer suspended to a PBS solution or a mixed solution of PBS and Matrigel (registered trademark) in 1:1. Dividing into groups was performed when the tumor volume reached 100 to 300 mm^3, and administering of the test compounds was started. The test was performed on each of the 5 mice in a solvent group and a compound administered group. By oral administration, 6% cyclodextrin aqueous solution for the solvent group, and 6% cyclodextrin aqueous solution in which the test compound was mixed by 8 mg/kg for the compound administered group were administered. The administration was performed once a day for 10 days (RKO) or 14 days (Colo201), and the body weight and the tumor diameter were measured twice a week. For calculation of the tumor volume, the formula below was used.
# (§2) [Tumor volume(mm^3)]=[major axis of tumor(mm)]×[minor axis of tumor(mm)]^2×0.5
# (§3) The inhibition rate of tumor growth was calculated from the average value of the tumor volume according to the formula below. […]
# [2] = system: Human AML-derived KG-1 cells; assay: Anti-tumor test 1 on tumor-bearing mice transplanted with human AML-derived KG-1 cell; format: in vivo; settings: KG-1, Balb/c nude mice, final measuring day
# Experimental: 4 week old male Balb/c nude mice (CHARLES RIVER LABORATORIES JAPAN, INC.) were injected and implanted, under the skin on the back, with 3×10^6 KG-1 cells, suspended to a mixed solution of PBS and Matrigel (registered trademark) in 1:1. After 16 days of implantation, administering of the test compounds was started. The test was performed on each of the 5 mice in the solvent group (6% cyclodextrin aqueous solution) and the test compound administered group (Test Compound Al was mixed to the solvent group by a dosage of 2, 4, or 8 mg/kg). The administration was performed once a day for 14 days by oral administration, and the body weight and the tumor diameter were measured twice a week. For calculation of the tumor volume, the formula below was used.
# as §2
# (§4) The inhibition rate of tumor growth and the rate of tumor regression were calculated from the average value of the tumor volume according to the formula below.
# (§5) Inhibition rate of tumor growth(%)=(1−average of tumor volume growth in each group/average of tumor volume growth in solvent group)×100
# (§6) Rate of tumor regression(%)=(1−average tumor volume in each group on measuring day/average tumor volume in each group when dividing groups)×100
# [3] = system: DB cells derived from DLBCL; assay: Anti-tumor test 1 on mice tumor-bearing DLBCL-derived DB cells; format: in vivo; settings: Balb/c nude mice, 8 mg/kg oral once a day for 16 days, final measuring day
# Experimental: (§7) 4 to 5 week old male Balb/c nude mice (CHARLES RIVER LABORATORIES JAPAN, INC.) were injected and implanted, under the skin on the back, with 3×10^6 DB cells or WSU-DLCL-2 cells both derived from DLBCL suspended to a mixed solution of PBS and Matrigel (registered trademark) in 1:1. Dividing into groups was performed when the average tumor volume reached 400 to 500 mm^3, and administering of the test compounds was started. […] The administration was performed once a day for 16 days (DB) or 17 days (WSU-DLCL-2) by oral administration, and the body weight and the tumor diameter were measured twice a week. For calculation of the tumor volume, the formula below was used.
# (§8) [Tumor volume(mm^3)]=[major axis of tumor(mm)]×[minor axis of tumor (mm)]^2×0.5
# (§9) The rate of tumor regression was calculated from the average value of the tumor volume according to the formula below.
# as §6
# [4] = system: PIK3CA mutation-positive and BRAF mutation-positive RKO cells derived from human colorectal cancer; assay: Anti-tumor test 1 on mice tumor-bearing human colorectal cancer-derived RKO cells; format: in vivo; settings: Balb/c nude mice, 8 mg/kg oral once a day for 10 days, final measuring day
# Experimental: as §1, §2, §3
# [5] = system: DB cells derived from DLBCL; assay: Anti-tumor test 2 on mice tumor-bearing DLBCL-derived DB cells; format: in vivo; settings: Balb/c nude mice, final measuring day
# Experimental: (§10) 4 to 5 week old male Balb/c nude mice (CHARLES RIVER LABORATORIES JAPAN, INC.) were injected and implanted, under the skin on the back, with 3×10^6 DB cells or SU-DHL-4 cells both derived from DLBCL suspended to a mixed solution of PBS and Matrigel (registered trademark) in 1:1. Dividing into groups was performed when tumor volume reached 100 to 250 mm^3, and administering of the test compounds was started. The test was performed on each of the 5 mice in the solvent group and the compound administered group. By oral administration, 6% cyclodextrin aqueous solution for the solvent group, and 6% cyclodextrin aqueous solution in which the test compound was mixed by the dosage shown in Table 10 for the compound administered group were administered. The administration was performed once a day for 21 days by oral administration, and the body weight and the tumor diameter were measured twice a week. For calculation of the tumor volume, the formula below was used.
# as §8, §4, §5, §6
# [6] = system: Human AML-derived MV-4-11 cells; assay: Anti-tumor test 1 on tumor-bearing mice transplanted with human AML-derived MV-4-11 cell; format: in vivo; settings: MV-4-11, NOD/SCID mice, 8 mg/kg oral once a day for 19 days, final measuring day
# Experimental: 4 to 5 week old male NOD/SCID nude mice (CHARLES RIVER LABORATORIES JAPAN, INC.) were injected and implanted, under the skin on the back, with 5×10^6 MV-4-11 cells suspended to a mixed solution of PBS and Matrigel (registered trademark) in 1:1. After 7 days of implantation, administering of the test compounds was started. […] The administration was performed once a day for 19 days by oral administration, and the body weight and the tumor diameter were measured twice a week. For calculation of the tumor volume, the formula below was used.
# as §2
# (§11) The inhibition rate of tumor growth was calculated from the average value of the tumor volume according to the formula below.
# as §5
# [7] = system: Human AML-derived MV-4-11 cells; assay: Anti-tumor test 2 on tumor-bearing mice transplanted with human AML-derived MV-4-11 cell; format: in vivo; settings: MV-4-11, NOD/SCID mice, 14 days after starting the administration
# Experimental: 4 to 5 week old male NOD/SCID nude mice (CHARLES RIVER LABORATORIES JAPAN, INC.) were injected and implanted, under the skin on the back, with 5×10^6 MV-4-11 cells suspended to a mixed solution of PBS and Matrigel (registered trademark) in 1:1. Administering of the test compounds was started when tumor volume reached 100 to 250 mm^3. The test was performed on each of the 5 mice in the solvent group and the compound administered group. By oral administration, 6% cyclodextrin aqueous solution for the solvent group, and 6% cyclodextrin aqueous solution in which the test compound was mixed by the dosage shown in Table 8 for the compound administered group were administered. The administration was performed once a day by oral administration, and the body weight and the tumor diameter were measured twice a week. For calculation of the tumor volume, the formula below was used.
# as §2, §4, §5, §6
# The anti-tumor effect of Test Compounds A1, B1, C1, and D1 on the final measuring day (14 days after starting the administration) is shown in Table 8.
# [8] = system: Human AML-derived KG-1 cells; assay: Anti-tumor test 2 on tumor-bearing mice transplanted with human AML-derived KG-1 cell; format: in vivo; settings: KG-1, Balb/c nude mice, final measuring day
# Experimental: as §10, with “5 weeks” for “5 week”, “3×10^6 KG-1” for “3×10^6 DB”, “cells” for “cells or SU-DHL-4 cells both derived from DLBCL”, “to 200” for “to 250”, “Table 6” for “Table 10”, “21 days,” for “21 days by oral administration,”
# as §2, §4, §5, §6
# [9] = system: SU-DHL-4 cells derived from DLBCL; assay: Anti-tumor test 2 on mice tumor-bearing DLBCL-derived SU-DHL-4 cells; format: in vivo; settings: SU-DHL-4, Balb/c nude mice, final measuring day
# Experimental: as §10, §8, §4, §5, §6
# [10] = system: PIK3CA mutation-positive Colo201 cells derived from human colorectal cancer; assay: Anti-tumor test 2 on mice tumor-bearing human colorectal cancer-derived Colo201 cells; format: in vivo; settings: Colo201, Balb/c nude mice, final measuring day
# Experimental: (§12) 4 to 5 week old male Balb/c nude mice (CHARLES RIVER LABORATORIES JAPAN, INC.) were injected and implanted, under the skin on the back, with 3×10^6 PIK3CA mutation-positive and BRAF mutation-positive RKO cells, or 3×10^6 PIK3CA mutation-positive Colo201 cells, both derived from human colorectal cancer suspended to a mixed solution of PBS and Matrigel (registered trademark) in 1:1. Dividing into groups was performed when the tumor volume reached 100 to 250 mm^3, and administering of the test compounds was started. The test was performed on each of the 5 mice in the solvent group and the compound administered group. By oral administration, 6% cyclodextrin aqueous solution for the solvent group, and 6% cyclodextrin aqueous solution in which the test compound was mixed by the dosage shown in Table 4 for the compound administered group were administered. The administration was performed once a day for 11 days (RKO) or 21 days (Colo201), and the body weight and the tumor diameter were measured twice a week. For calculation of the tumor volume, the formula below was used.
# as §2, §11
# (§13) Inhibition rate of tumor growth(%)=([…]average of tumor volume growth in each group/average of tumor volume growth in solvent group)×100
# [11] = system: WSU-DLCL-2 cells derived from DLBCL; assay: Anti-tumor test 1 on mice tumor-bearing DLBCL-derived WSU-DLCL-2 cells; format: in vivo; settings: WSU-DLCL-2, Balb/c nude mice, 8 mg/kg oral once a day for 17 days, final measuring day
# Experimental: as §7, §8, §9, §6
# [12] = system: PIK3CA mutation-positive and BRAF mutation-positive RKO cells derived from human colorectal cancer; assay: Anti-tumor test 2 on mice tumor-bearing human colorectal cancer-derived RKO cells; format: in vivo; settings: Balb/c nude mice, final measuring day
# Experimental: as §12, §2, §11, §13
# [13] = target: Human Mitochondrial Complex I (Homo sapiens, UniProt O75251+O75306+P03886); assay: Evaluation on effect of inhibiting human mitochondrial Complex I (mitochondria from MDA-MB-453 tumor); format: biochemical; settings: mitochondria extracted from MDA-MB-453 tumor; concentration in terms of freebase
# Experimental: A solution of 9 times the tumor weight for extraction of mitochondria (0.275 M Sucrose, 2.2 mM EDTA, 11 mM Tris/HCl, pH 7.5, Complete-EDTA-free (Roche Diagnostics)) was added thereto, and then the tumor was crushed. The centrifugation was performed at 600×g for 10 minutes at 4° C., the supernatant was obtained, and then the centrifugation was performed at 14,000×g for 10 minutes at 4° C., and therefore pellets were obtained. The pellets were suspended in 10 mM Tris/HCl pH 7.5 of 5 times the weight of the extracted tumor, and therefore a suspension of human mitochondria was obtained.
# Next, 25 or 50 μl of the suspension of human mitochondria was added per 1 ml of a liquid for measuring Complex I activity (25 mM potassium phosphate, pH 7.6, 0.35% Bovine Serum Albumin (BSA), 60 μM 2,6-dichlorophenol-indophenol, 70 μM decylubiquinone, 1 μM antimycin). After the solution was collected and added to a 96 or 384 well plate, a test compound was added to an arbitrary range from the final concentration of 10,000 nM to the final concentration of 0.3 nM. […] Furthermore, NADH was added to each well to the final concentration of 0.2 or 0.5 mM, and the change in absorbance at a wavelength of 600 nm was measured by using the SpectraMax (Molecular Devices, LLC.) set to 37° C. in advance. […]
# [14] = 8 mg/kg oral once a day for 21 days
# [15] = 8 mg/kg oral once a day for 11 days
# [16] = 1 mg/kg oral once a day for 21 days
# [17] = 1 mg/kg oral once a day for 11 days
smiles,measurement,setting,value
"COc1ccc(CN2CCC(c3ccc4[nH]c(C(=O)N5CCN(Cc6ccc(C(F)(F)F)cc6)CC5)nc4c3)CC2)cn1 [Compound A1, (5-{1-[(6-methoxypyridin-3-yl)methyl]piperidin-4-yl}-1H-benzimidazol-2-yl){4-[4-(trifluoromethyl)benzyl]piperazin-1-yl}methanone]",Inhibition rate of tumor growth,[1],60%
same,Inhibition rate of tumor growth,[2]; 2 mg/kg oral once a day for 14 days,54% inhibition
same,Inhibition rate of tumor growth,[2]; 4 mg/kg oral once a day for 14 days,70% inhibition
same,Rate of tumor regression,[2]; 8 mg/kg oral once a day for 14 days,8% regression
same,Regression rate,[3],67%
same,Inhibition rate of tumor growth,[4],67%
same,Regression rate DB,[5]; [14],66% regression
same,Inhibition rate of tumor growth,[6],96%
same,Rate of tumor regression,[7]; 8 mg/kg oral once a day,70% regression
same,Inhibition rate of tumor growth,[8]; [14],99% inhibition
same,Inhibition rate SU-DHL-4,[9]; [14],64%
same,Inhibition rate Colo201,[10]; [14],53%
same,Regression rate,[11],72%
same,Inhibition rate RKO,[12]; [15],48%
"COc1cnc(CN2CCC(c3ccc4[nH]c(C(=O)N5CCN(Cc6ccc(C(F)(F)F)cc6)CC5)nc4c3)CC2)cn1 [Compound B1, (5-{1-[(5-methoxypyrazin-2-yl)methyl]piperidin-4-yl}-1H-benzimidazol-2-yl){4-[4-(trifluoromethyl)benzyl]piperazin-1-yl}methanone]",Regression rate DB,[5]; [14],92% regression
same,Rate of tumor regression,[7]; 8 mg/kg oral once a day,76% regression
same,Rate of tumor regression,[8]; [14],31% regression
same,Inhibition rate SU-DHL-4,[9]; [14],87%
same,Inhibition rate Colo201,[10]; [14],52%
same,Inhibition rate RKO,[12]; [15],55%
"CCOc1cnc(CN2CCC(c3ccc4cc(C(=O)N5CCN(Cc6ccc(C#N)cc6)CC5)n(C)c4c3)CC2)cn1 [Compound C1, 4-({4-[(6-{1-[(5-ethoxypyrazin-2-yl)methyl]piperidin-4-yl}-1-methyl-1H-indol-2-yl)carbonyl]piperazin-1-yl}methyl)benzonitrile]",Regression rate DB,[5]; [16],69% regression
same,Rate of tumor regression,[7]; 1 mg/kg oral once a day,77% regression
same,Rate of tumor regression,[8]; [16],29% regression
same,Inhibition rate SU-DHL-4,[9]; [16],100%
same,Inhibition rate Colo201,[10]; [16],54%
same,Inhibition rate RKO,[12]; [17],58%
"COc1cnc(CN2CCC(c3ccc4c(c3)cc(C(=O)N3CCN(Cc5ccc(C#N)cc5)CC3)n4C)CC2)cn1 [Compound D1, 4-({4-[(5-{1-[(5-methoxypyrazin-2-yl)methyl]piperidin-4-yl}-1-methyl-1H-indol-2-yl)carbonyl]piperazin-1-yl}methyl)benzonitrile]",IC50,[13],0.12 µM
same,Inhibition rate DB,[5]; [16],96% inhibition
same,Inhibition rate of tumor growth,[7]; 1 mg/kg oral once a day,90% inhibition
same,Inhibition rate of tumor growth,[8]; [16],95% inhibition
same,Inhibition rate SU-DHL-4,[9]; [16],40%
same,Inhibition rate Colo201,[10]; [16],45%
same,Inhibition rate RKO,[12]; [17],13%

# From US20170360781A1, “PHARMACEUTICAL COMPOSITION COMPRISING BICYCLIC NITROGEN-CONTAINING AROMATIC HETEROCYCLIC AMIDE COMPOUND AS ACTIVE INGREDIENT” (Astellas Pharma Inc., priority 2014, published 2017)
